{"source": "patent US8034796B2", "about": "“Glucosamine and glucosamine/anti-inflammatory mutual prodrugs, compositions, and methods” (The University of Georgia Research Foundation, Inc., priority 2004, dated 2011)", "key": {"[1]": {"conditions": "cited from earlier work"}, "[2]": {"assay": "In-vitro membrane permeation of NAG from lecithin suspensions and pluronic organo-gel formulations across shed snakeskin", "assay_type": "in vitro ADME, snake", "method": "Twenty percent poloxamer 407 (PLURONIC F127; Polyethylene-Polypropylene Glycol) gels were made by standard methods e.g. dissolving the poloxamer into cold water under refrigeration for 24 hours to produce the pluronic gel phase. NAG was incorporated into the pluronic gel phase. The final formulations were prepared via the emulsification of the select organic phase with the pluronic gel phase using luer-lock connected syringes.\nShed snakeskins were used as the model membrane for these permeation studies using the NAG semi-solid gel formulations. The skins were hydrated in 0.1% aqueous sodium azide solution at room temperature for 48 hrs. Franz-cell diffusions experiments were carried out. In general the receptor cell was filled with a 7.4 pH 0.1 M phosphate buffer. The receptor solution was maintained at 37° C. and stirred with a magnetic stirrer. The snakeskins were mounted between the receptor and donor cells. The surface exposed to diffusion was 2.54 cm^2 (diameter 1.8 cm) and the receptor cell volume was 6 cm^3. The donor cell was covered with plastic film. The system was allowed to equilibrate at 37° C. for two hours before each experiment. The donor cells were filled with a 5 ml of the semisolid NAG pluronic-organo-gel formulation. Samples (N=3) were taken at intervals over a 48-hour period, 200-μl samples of receptor solutions were taken and replaced with fresh buffer; experiments were conducted in triplicate. The amounts of NAG that permeated through the snakeskin were determined by HPAE-PAD.\nSteady state flux (Jss) for NAG (mg/cm^2/h) was calculated from its increasing amount in the receptor medium (Bach et al., Eur. J. Pharm. and Biopharm., 46:1-13 (1998)). NAG's permeability coefficient (kp) in cm/h was calculated from known physiochemical parameters (Hadgraft et al., “Feasibility Assessment in Topical and Transdermal Delivery: Mathematical Models and In Vitro Studies,” in Transdermal Drug Delivery, 2nd Ed. Marcel Dekker, Inc., pages 1-23 (2003)). Lag time (tlag) was determined graphically from the cumulative amount of drug released per unit area (mg/cm^2) versus time (h) plots. A square root of time (t^1/2) versus cumulative amount of drug released per unit area (mg/cm^2) was obtained to monitor NAG in vitro release rate (mg/cm^2) (Guidance for Industry: SUPAC-SS Semisolid Dosage Forms. Scale-up and Postapproval Changes Chemistry, Manufacturing, and Control; In Vitro Release Testing and In Vivo Bioequivalence Documentation. US Department of Health and Human Services, Food and Drug Administration, May 1997)."}, "[3]": {"assay_type": "in vitro ADME, snake", "method": "In vitro transport (diffusion) was evaluated by Franz cell diffusion experiments using shed snakeskin. Shed snakeskin is widely recognized as a sufficient model membrane to human skin for preliminary permeability studies due to the similarity in its composition to the human stratum corneum.\nThe shed snakeskin was hydrated in 0.1% aqueous sodium azide solution for 48 hours at room temperature. The skins were mounted to three Franz receptor cells filled with 0.1 M pH7 phosphate buffer. The receptor solution was maintained at 37° C. and stirred with a magnetic stirrer. The donor cells were clamped to each receptor cell, with the skin mounted between the receptor and donor cells, and the donor cells were filled with 100 milligrams (mg) each of glucosamine HCl (e.g., cell 1), N-acetyl glucosamine (e.g., cell 2), and glucosamine pentaacetyl (e.g., cell 3) in a 1 milliliter (ml) DMSO solution. The skin surface exposed to diffusion was 2.54 cm^2 (1.8 cm diameter) and the receptor cell volume was 6 cm^3. The system was allowed to equilibrate for two hours before samples were taken.\nTwenty microliter (μl) samples of receptor solution were taken at 5, 10, 20, 40, 80, 160, and 240 minute intervals and replaced with fresh buffer. A ten μl aliquot of each sample was analyzed by high performance liquid chromatography with pulsed electrochemical detection."}, "[4]": {"assay": "Oil/water partition coefficient, n-hexane/phosphate buffer", "assay_type": "physicochemical", "conditions": "37° C., 24 hours", "method": "The oil/water partition coefficient for NAG was determined using n-hexane/phosphate buffer (pH 5.5 6, 6.73, and 7.4, 0.1 M) and n-hexane/water (Bemacki et al., J. Supramolecular Structure, 7:235-250 (1977)). In each case 5 ml of n-hexane was mixed with aqueous solutions containing NAG and shaken at 37° C. for 24 hours. The mixture was afterwards centrifuged and the organic and aqueous phases separated. The NAG concentration in the filtrates was determined by HPAE-PAD after the appropriate dilution."}, "[5]": {"conditions": "cited from earlier work", "remark": "listed apart in the source"}, "[6]": {"assay": "In-vitro membrane permeation of NAG through shed snakeskin (Franz cell; enhancers, DMSO, ethanol/buffer)", "assay_type": "in vitro ADME, snake", "from_the_text": "Shed snakeskins were used as a model membrane for permeation studies using the NAG suspensions in known membrane permeation enhancers; ethanol, oleic acid, isopropyl myristate, and isopropyl palmitate; saturated solutions of NAG in water and in phosphate buffer; as well as in a saturated DMSO solution and phosphate buffer (pH 5.5) containing ethanol at 2%, 5%, 10%, 25%, and 50% solutions.\nThe skins were hydrated in 0.1% aqueous sodium azide solution at room temperature for 48 hrs. Franz-cell diffusions experiments were carried out. In general the receptor cell was filled with 7.4 pH 0.1 M phosphate buffer and the donor cell filled with a solution or suspension. For the phosphate buffer (pH 5.5) containing ethanol at 2%, 5%, 10%, 25%, and 50% solutions in the donor phase, the receptor phase consisted of phosphate buffer (pH 5.5, 0.1 M). The receptor solution was maintained at 37° C. and stirred with a magnetic stirrer.\nThe snake skins were mounted between the receptor and donor cells. The surface exposed to diffusion was 2.54 cm^2 (diameter 1.8 cm) and the receptor cell volume was 6 cm^3. The donor cell was covered with plastic film. The system was allowed to equilibrate at 37° C. for two hours before each experiment. To the donor cells, 5 ml of the NAG-enhancer suspension or solution was added. Samples were taken at intervals over a 24-hour period, 200-μl samples of receptor solutions were taken and replaced with fresh buffer; experiments were conducted in triplicate. The amounts of NAG that permeated through the snakeskin were determined by HPAE-PAD.\nSteady state flux (Jss) for NAG (mg/cm^2/h) was calculated from its increasing amount in the receptor medium (Bach et al., Eur. J. Pharm. Biopharm, 46:1-13 (1998)). NAG's permeability coefficient (kp) in cm/h was calculated from known physiochemical parameters, (Hadgraft et al., “Feasibility Assessment in Topical and Transdermal Delivery: Mathematical Models and In Vitro Studies,” in Transdermal Drug Delivery. 2nd Ed. Marcel Dekker, Inc., pages 1-23 (2003)). Lag time (tlag) was determined graphically from the cumulative amount of drug released per unit area (mg/cm^2) versus time plots. A square root of time (t^1/2) versus cumulative amount of drug released per unit area (mg/cm^2) was obtained to monitor NAG in vitro release rate (mg/cm^2), (Guidance for Industry: SUPAC-SS Semisolid Dosage Forms. Scale-up and Postapproval Changes Chemistry, Manufacturing, and Control; In Vitro Release Testing and In Vivo Bioequivalence Documentation. US Department of Health and Human Services, Food and Drug Administration, Center for. Drug Evaluation and Research, May 1997)."}, "[7]": {"assay": "Solubility measurements of NAG", "assay_type": "physicochemical", "method": "The solutions were centrifuged for 5 min at 9000 rev/min and the supernatant filtered with cellulose acetate membrane filters (0.45 μm pore size) (Dionex, Sunnyvale Calif.). The NAG concentration in each filtrate was determined by HPAE-PAD after the appropriate dilution."}, "[8]": {"conditions": "cited from earlier work", "remark": "listed apart in the source"}, "[9]": {"conditions": "literature; cited from earlier work"}, "[10]": {"conditions": "lecithin-vitamin E (1:1) suspension"}, "[11]": {"conditions": "phosphate buffer (pH 5.5) with 2% ethanol"}, "[12]": {"conditions": "phosphate buffer (pH 5.5) with 5% ethanol"}, "[13]": {"conditions": "phosphate buffer (pH 5.5) with 10% ethanol"}, "[14]": {"conditions": "phosphate buffer (pH 5.5) with 25% ethanol"}, "[15]": {"conditions": "phosphate buffer (pH 5.5) with 50% ethanol"}, "[16]": {"conditions": "saturated DMSO donor, pH 7.4 phosphate buffer receptor"}}, "note": "Read-outs that look alike come from different tables or passages of the source.", "data": [{"smiles": "CC(=O)N[C@H]1C(O)O[C@H](CO)[C@@H](O)[C@@H]1O", "note": "(stereo partly drawn) [NAG, N-acetyl-D-glucosamine]", "values": [{"measurement": "pKa", "setting": "[1]", "result": 6.73}, {"measurement": "transport in aqueous only vehicles", "setting": "[2]; experiments not reported here", "result": "not transported"}, {"measurement": "NAG transport from suspensions", "setting": "[2]; lecithin-isopropyl palmitate and vitamin E suspensions (100 mg/ml)", "result": "Negligible (below the limit of detection)"}, {"measurement": "Release rate", "setting": "[2]; [10]", "result": 13.71, "unit": "μg/cm^2"}, {"measurement": "steady state flux Jss", "setting": "[2]; [10]", "result": 4.23, "unit": "μg/cm^2/h"}, {"measurement": "Papp", "setting": "[2]; snake, pH 7.4, lecithin-vitamin E (1:1) suspension, read-out: permeability coefficient kp (converted)", "result": 1.39, "unit": "×10⁻⁶ cm/s"}, {"measurement": "transport across shed snake skin", "setting": "[3]", "result": "highly transported"}, {"measurement": "transport (receptor cell volume analyzed)", "setting": "[3]; snake, 100 mg/ml, pH 7", "result": "over 50%"}, {"measurement": "partition coefficient n-hexane/pH 5.5 buffer", "setting": "[4]", "result": 0.252}, {"measurement": "partition coefficient n-hexane/pH 6.0 buffer", "setting": "[4]", "result": 0.194}, {"measurement": "partition coefficient n-hexane/pH 6.73 buffer", "setting": "[4]", "result": 0.092}, {"measurement": "partition coefficient n-hexane/pH 7.4 buffer", "setting": "[4]", "result": 0.091}, {"measurement": "octanol-water partition coefficient", "setting": "[5]; pH 7.4", "result": 0.017}, {"measurement": "NAG transport from suspensions of membrane permeability enhancers", "setting": "[6]; ethanol, oleic acid, isopropyl myristate and isopropyl palmitate suspensions", "result": "Negligible"}, {"measurement": "In Vitro release rate", "setting": "[6]; [11]", "result": 286.03, "unit": "μg/cm^2"}, {"measurement": "Jss", "setting": "[6]; [11]", "result": 112.61, "unit": "mg/cm^2/h"}, {"measurement": "In Vitro release rate", "setting": "[6]; [12]", "result": 303.61, "unit": "μg/cm^2"}, {"measurement": "Jss", "setting": "[6]; [12]", "result": 119.53, "unit": "mg/cm^2/h"}, {"measurement": "In Vitro release rate", "setting": "[6]; [13]", "result": 537.49, "unit": "μg/cm^2"}, {"measurement": "Jss", "setting": "[6]; [13]", "result": 211.61, "unit": "mg/cm^2/h"}, {"measurement": "In Vitro release rate", "setting": "[6]; [14]", "result": 523.06, "unit": "μg/cm^2"}, {"measurement": "Jss", "setting": "[6]; [14]", "result": 205.93, "unit": "mg/cm^2/h"}, {"measurement": "In Vitro release rate", "setting": "[6]; [15]", "result": 198.02, "unit": "μg/cm^2"}, {"measurement": "Jss", "setting": "[6]; [15]", "result": 77.96, "unit": "mg/cm^2/h"}, {"measurement": "In Vitro release rate", "setting": "[6]; [16]", "result": 186.64, "unit": "mg/cm^2"}, {"measurement": "Jss", "setting": "[6]; [16]", "result": 73.48, "unit": "mg/cm^2/h"}, {"measurement": "lag time", "setting": "[6]; saturated DMSO solution", "result": "no lag time"}, {"measurement": "in vitro release rate", "setting": "[6]; saturated DMSO solution, FIG. 13", "result": 73.48, "unit": "μg/cm^2"}, {"measurement": "Papp", "setting": "[6]; snake, calculated from known physiochemical parameters, read-out: permeability coefficient kp (converted)", "result": 203, "unit": "×10⁻⁶ cm/s"}, {"measurement": "permeation from aqueous solutions", "setting": "[6]; water or phosphate buffer solutions (pH 5.5, 6.0, 6.73, and 7.4; 0.1 M)", "result": "No permeation"}, {"measurement": "solubility", "setting": "[7]; ethanol", "result": "insignificantly soluble"}, {"measurement": "solubility", "setting": "[7]; phosphate buffer", "result": "highly soluble"}]}, {"smiles": "Cl.N[C@H]1C(O)O[C@H](CO)[C@@H](O)[C@@H]1O", "note": "(stereo partly shown) [glucosamine HCl, Glucosamine HCl, reference compound]", "values": [{"measurement": "transport across shed snake skin", "setting": "[3]", "result": "not transported"}]}, {"smiles": "N[C@H]1C(O)O[C@H](CO)[C@@H](O)[C@@H]1O", "note": "(stereo partly shown) [glucosamine]", "values": [{"measurement": "bioavailability", "setting": "[8]; oral administration", "result": "12-13%"}, {"measurement": "oral dose absorbed and excreted", "setting": "[8]; oral dose", "result": "approximately 87%"}, {"measurement": "oral dose reaching osteoarthritic joints", "setting": "[8]; oral dose", "result": "< 1", "unit": "%"}, {"measurement": "oral dose widely distributed in the body", "setting": "[8]; oral dose", "result": "< 13", "unit": "%"}]}, {"smiles": "CC(C)Cc1ccc(C(C)C(=O)O)cc1", "note": "(stereo not shown) [ibuprofen]", "values": [{"measurement": "transport across shed snake skin", "setting": "[9]", "result": "transported"}]}, {"smiles": "CN1CC[C@]23c4c5ccc(O)c4O[C@H]2C(=O)CC[C@@]3(O)[C@H]1C5", "note": "[oxymorphone]", "values": [{"measurement": "octanol-water partition coefficient", "setting": "[5]; pH 7.4", "result": 0.0}]}, {"smiles": "CCC(NC(C)C)C(O)c1ccc(O)c2[nH]c(=O)ccc12", "note": "(stereo not shown) [procaterol]", "values": [{"measurement": "octanol-water partition coefficient", "setting": "[5]; pH 7.7", "result": "−0.37"}]}]}
